According to patent US12630511B2, “Benzamide derivative, preparation method therefor, and pharmaceutical composition comprising same as active ingredient for prevention or treatment of cancer” (KOREA RESEARCH INSTITUTE OF CHEMICAL TECHNOLOGY, priority 2019, dated 2026):

Columns and labels:
[1] = biological target: T1, EGFR L858R/T790M/C797S mutant enzyme (Homo sapiens, UniProt P00533, C797S/L858R/T790M); assay: Inhibitory capacity against EGFR L858R/T790M/C797S mutant enzyme (Cisbio HTRF); assay type: biochemical; conditions: for IC50: HTRF, 1 mM ATP, 37° C. for 2 hours, 7 concentrations
T1 construct: purchased SignalChem
Description: Experimental Example 1: Measurement of Inhibitory Capacity Against EGFR L858R/T790M/C797S
In order to confirm the inhibitory capacity of the compounds prepared in Examples 1 to 13 provided in one aspect of the present invention against EGFR mutation, the following experiment was performed.
Particularly, the activity of the compounds of the present invention against EGFR mutant enzyme was measured using the HTRF system of Cisbio Co. As an EGFR L858R/T790M/C797S mutant enzyme, a protein provided by SignalChem was purchased and used as an enzyme source.
The composition of the assay buffer used for the activity measurement was as follows: 50 mM Tris-HCl (pH 7.5), 100 mM NaCl, 7.5 mM MgCl2, 3 mM KCl, 0.01% Tween 20, 0.1% BSA, and 1 mM DTT. Herein, an enzyme reaction was performed using a peptide substrate labeled with ATP at the concentration of 1 mM and biotin at the concentration of 0.5 μM. The analysis of the EGFR activity inhibitory effect of the compounds was performed according to the following analytical reaction recipe. • Component 1: 4 μl of EGFR mutant enzyme • Component 2: 2 μl of compound solution • Component 3: 4 μl of ATP and biotin-labeled peptide mixture
The enzyme reaction was initiated by mixing the component 1 and the component 2 first and then adding the component 3 thereto. After reacting the mixture at 37° C. for 2 hours, 10 μl of a measurement solution consisting of streptavidin-XL665 and europium-labeled anti-phosphotyrosine antibody provided by Cisbio was added to the enzyme reaction solution, followed by reaction at room temperature for 1 hour. Finally, the ratio of the fluorescence values at 615 nm and 665 nm was calculated using Envision equipment of Perkin-Elmer to quantitatively measure the enzyme activity and confirm the inhibitory ability of the compounds. The values measured at 7 concentrations of the compound were analyzed using Prism program (version 5.01, Graphpad Software, Inc.), and the IC50 value, an index of the inhibitory ability of the compound, was calculated.

[2] = test system: Ba/F3 L858R/T790M/C797S (LTC) cells; assay: Anticancer activity in BaF3 cells overexpressing EGFR L858R/T790M/C797S (CellTiter-Glo), alone or combined with cetuximab; assay type: cell-based; conditions: cells overexpressed with EGFR L858R/T790M/C797S; combined with cetuximab; 72 hours; FIG. 1 and FIG. 2
Description: (§1) Experimental Example 2: Evaluation of Anticancer Activity in BaF3 Cells Overexpressed with Various EGFR Mutations
(§2) In order to confirm that the compound represented by formula 1 according to the present invention acted as an allosteric inhibitor against EGFR wild-type and mutants, the inhibitory effect on EGFR wild-type and mutants in Ba/F3 cell line was evaluated. In addition, in order to evaluate the cellular activity when the compound according to the present invention was co-administered with an existing drug, the cellular activity according to the combined administration was evaluated using Cetuximab used alone or in combination with chemotherapy in metastatic colorectal cancer and metastatic squamous head and neck cancer.
(§3) Particularly, the activity of the compound of the present invention against the wild-type and mutant Ba/F3 EGFR cell lines was measured as follows using the CellTiter-Glo system of Promega. […]
(§4) BaF3 cells were aliquoted in a 96 well cell culture plate at the density of 2500 cells/50 ul per well, to which 50 ul of the compound represented by formula 1 was treated at the concentrations of 0, 0.03, 0.1, 0.3, and 1 μM. […] Finally, the ratio of the fluorescence values at 570 nm was quantitatively measured using a luminometer, and the ability of the compound to inhibit cell viability was confirmed. […]

[3] = test system: Ba/F3 EGFR L858R/T790M (LT) cells; assay: Anticancer activity in BaF3 cells overexpressing EGFR L858R/T790M (CellTiter-Glo), alone or combined with cetuximab; assay type: cell-based; conditions: cells overexpressed with EGFR L858R/T790M; combined with cetuximab; 72 hours; FIG. 1 and FIG. 2
Description: as §1, §2, §3, §4

T1 sequence (P00533 25-1210 T790M/C797S/L858R): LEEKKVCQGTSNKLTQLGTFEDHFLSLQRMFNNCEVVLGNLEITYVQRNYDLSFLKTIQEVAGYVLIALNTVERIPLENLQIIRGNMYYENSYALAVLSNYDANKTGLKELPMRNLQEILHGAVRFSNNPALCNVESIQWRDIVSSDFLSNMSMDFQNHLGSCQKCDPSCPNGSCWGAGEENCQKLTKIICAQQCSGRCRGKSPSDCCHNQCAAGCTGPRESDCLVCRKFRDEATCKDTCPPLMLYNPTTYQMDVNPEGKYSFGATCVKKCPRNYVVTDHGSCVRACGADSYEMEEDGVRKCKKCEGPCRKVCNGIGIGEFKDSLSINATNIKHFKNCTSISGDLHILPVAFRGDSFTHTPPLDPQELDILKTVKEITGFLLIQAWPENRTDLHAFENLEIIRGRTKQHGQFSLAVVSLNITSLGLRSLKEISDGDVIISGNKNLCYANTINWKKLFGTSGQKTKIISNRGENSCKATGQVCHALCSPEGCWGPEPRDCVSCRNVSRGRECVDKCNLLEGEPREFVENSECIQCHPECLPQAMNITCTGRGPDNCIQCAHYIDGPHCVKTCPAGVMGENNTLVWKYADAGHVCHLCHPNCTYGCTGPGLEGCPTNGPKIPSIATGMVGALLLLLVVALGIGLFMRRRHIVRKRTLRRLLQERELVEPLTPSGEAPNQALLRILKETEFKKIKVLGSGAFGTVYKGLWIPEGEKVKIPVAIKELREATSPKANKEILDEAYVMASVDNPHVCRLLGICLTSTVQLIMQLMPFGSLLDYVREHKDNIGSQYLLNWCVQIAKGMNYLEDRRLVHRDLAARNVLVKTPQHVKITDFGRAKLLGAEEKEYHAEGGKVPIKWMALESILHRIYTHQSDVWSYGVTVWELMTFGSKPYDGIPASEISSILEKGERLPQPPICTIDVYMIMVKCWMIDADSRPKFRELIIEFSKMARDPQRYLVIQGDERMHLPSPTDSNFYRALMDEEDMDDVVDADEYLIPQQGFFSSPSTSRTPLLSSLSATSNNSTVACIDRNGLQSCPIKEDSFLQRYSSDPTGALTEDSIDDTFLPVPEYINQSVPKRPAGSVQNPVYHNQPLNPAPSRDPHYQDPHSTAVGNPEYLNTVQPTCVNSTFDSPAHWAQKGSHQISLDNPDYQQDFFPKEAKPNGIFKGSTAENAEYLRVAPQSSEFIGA

| SMILES | IC50 [1] | also measured |
| --- | --- | --- |
| CN1CCC(N2CCN(c3ccc(-c4cccc(C(=O)N[C@@H](c5cc6ccccc6[nH]5)c5cc(F)ccc5O)c4)cc3)CC2)CC1 [Example 9, (R)—N-((5-fluoro-2-hydroxyphenyl)(1H-indole-2-yl)methyl)-4′-(4-(1-methylpiperidine-4-yl)piperazine-1-yl)-[1,1′-biphenyl]-3-carboxamide] | 72 nM | – |
| CC(=O)N1CCN(c2ccc(-c3cccc(C(=O)N[C@@H](c4cc5ccccc5[nH]4)c4cc(F)ccc4O)c3)cc2)CC1 [Example 2, (R)-4′-(4-acetylpiperazine-1-yl)-N-((5-fluoro-2-hydroxyphenyl)(1H-indole-2-yl)methyl)-[1,1′-biphenyl]-3-carboxamide] | 61 nM | – |
| O=C(N[C@@H](c1cc2ccccc2[nH]1)c1cc(F)ccc1O)c1cccc(-c2ccc(N3CCNCC3)cc2)c1 [Example 1, (R)—N-((5-fluoro-2-hydroxyphenyl)(1H-indole-2-yl)methyl)-4′-(piperazine-1-yl)-[1,1′-biphenyl]-3-carboxamide] | 46 nM | – |
| O=C(N[C@@H](c1cc2ccccc2[nH]1)c1cc(F)ccc1O)c1cccc(-c2ccc(N3CCN(C4CCNCC4)CC3)cc2)c1 [Example 8, (R)—N-((5-fluoro-2-hydroxyphenyl)(1H-indole-2-yl)methyl)-4′-(4-(piperidine-4-yl)piperazine-1-yl)-[1,1′-biphenyl]-3-carboxamide] | 140 nM | – |
| CN(C)C1CCN(c2ccc(-c3cccc(C(=O)N[C@@H](c4cc5ccccc5[nH]4)c4cc(F)ccc4O)c3)cc2)CC1 [Example 7, (R)-4′-(4-(dimethylamino)piperidine-1-yl)-N-((5-fluoro-2-hydroxyphenyl)(1H-indole-2-yl)methyl)-[1,1′-biphenyl]-3-carboxamide] | 160 nM | – |
| O=C(N[C@@H](c1cc2ccccc2[nH]1)c1cc(F)ccc1O)c1cccc(-c2ccc(N3CCC(N4CCNCC4)CC3)cc2)c1 [Example 6, (R)—N-((5-fluoro-2-hydroxyphenyl)(1H-indole-2-yl)methyl)-4′-(4-(piperazine-1-yl)piperidine-1-yl)-[1,1′-biphenyl]-3-carboxamide] | 190 nM | – |
| CN1CCN(C2CCN(c3ccc(-c4cccc(C(=O)N[C@@H](c5cc6ccccc6[nH]5)c5cc(F)ccc5O)c4)cc3)CC2)CC1 [Example 5, (R)—N-((5-fluoro-2-hydroxyphenyl)(1H-indole-2-yl)methyl)-4′-(4-(4-methylpiperazine-1-yl)piperidine-1-yl)-[1,1′-biphenyl]-3-carboxamide] | 2600 nM | – |

Second part, led by results:

| IC50 [1] | SMILES | also measured |
| --- | --- | --- |
| > 10000 nM | N[C@H]1CCN(c2ccc(-c3cccc(C(=O)N[C@@H](c4cc5ccccc5[nH]4)c4cc(Cl)ccc4O)c3)cc2)C1 [Example 13, 4′-((S)-3-aminopyrrolidine-1-yl)-N—((R)-(5-chloro-2-hydroxyphenyl)(1H-indole-2-yl)methyl)-[1,1′-biphenyl]-3-carboxamide] | – |
| 160 nM | N[C@@H]1CCN(c2ccc(-c3cccc(C(=O)N[C@@H](c4cc5ccccc5[nH]4)c4cc(F)ccc4O)c3)cc2)C1 [Example 11, 4′-((R)-3-aminopyrrolidine-1-yl)-N—((R)-(5-fluoro-2-hydroxyphenyl)(1H-indole-2-yl)methyl)-[1,1′-biphenyl]-3-carboxamide] | – |
| 7 nM | NC1CCN(c2ccc(-c3cccc(C(=O)N[C@@H](c4cc5ccccc5[nH]4)c4cc(F)ccc4O)c3)cc2)CC1 [Example 3, (R)-4′-(4-aminopiperidine-1-yl)-N-((5-fluoro-2-hydroxyphenyl)(1H-indole-2-yl)methyl)-[1,1′-biphenyl]-3-carboxamide] | inhibitory capacity against EGFR L858R/T790M/C797S mutation (in words) ([1]; summary of Table 2): excellent inhibitory capacity; anticancer activity in combination with cetuximab (cell viability relative to cetuximab only) [2]: synergistic anticancer activity; anticancer activity in combination with cetuximab (cell viability relative to cetuximab only) [3]: synergistic anticancer activity |
| 640 nM | NC1CCN(c2ccc(-c3cccc(C(=O)N[C@@H](c4cc5ccccc5[nH]4)c4cc(Cl)ccc4O)c3)cc2)CC1 [Example 4, (R)-4′-(4-aminopiperidine-1-yl)-N-((5-chloro-2-hydroxyphenyl)(1H-indole-2-yl)methyl)-[1,1′-biphenyl]-3-carboxamide] | – |
| 180 nM | N[C@H]1CCN(c2ccc(-c3cccc(C(=O)N[C@@H](c4cc5ccccc5[nH]4)c4cc(F)ccc4O)c3)cc2)C1 [Example 12, 4′-((S)-3-aminopyrrolidine-1-yl)-N—((R)-(5-fluoro-2-hydroxyphenyl)(1H-indole-2-yl)methyl)-[1,1′-biphenyl]-3-carboxamide] | – |
| 5900 nM | O=C(N[C@@H](c1cc2ccccc2[nH]1)c1cc(F)ccc1O)c1cccc(-c2ccc(N3CCCC3)cc2)c1 [Example 10, (R)—N-((5-fluoro-2-hydroxyphenyl)(1H-indole-2-yl)methyl)-4′-(pyrrolidine-1-yl)-[1,1′-biphenyl]-3-carboxamide] | – |
